Results taken from patent US11390646B2, “Structure-based peptide inhibitors of α-synuclein aggregation” (The Regents of the University of California, priority 2016, dated 2022).
Values joined by “and” are separate entries in the source; they are usually repeats but may differ in a detail not shown here. Equal values may be shown once. “Also recorded” adds a separate entry of the source. Ends that are not written are not given here.

How the values were obtained:
PC12 cells = details: literature reference 20; cited from earlier work
[1] = tested on: HEK293T cells expressing YFP-labeled A53T α-syn; test: Cell culture seeding assay: α-syn aggregated in the presence of inhibitors, mixture transfected, puncta counted; type: cell-based, human; details: for seeding competence of α-syn aggregated in presence of peptide (particles/puncta per well): 50 μM α-syn aggregated with 10, 5, 2, 1 fold excess (S71: equimolar and sub-stoichiometric), monitored up to 3 days
Text: (§1) We tested the efficacy of the inhibitors in preventing aggregation in a cell culture model. For these assays, we utilized two HEK293T cells that stably express YFP-labeled full-length WT α-syn and A53T α-syn (Sanders D W, et al. (2014) Neuron 82(6):1271-1288). In this model, lipofectamine-mediated transfection of recombinant fibrils leads to aggregation of the endogenous YFP-labeled protein that are seen as fluorescent puncta. Additionally, these puncta increase in size and number over time. This proliferation of aggregates over time is indicative of a ‘seeding’ phenomenon whereby a small amount of amyloid fibrils induces aggregation of the endogenous protein. First we tested the parent peptide segment, NACore to check its effect on seeding. α-syn was aggregated in the presence of molar excess of NACore (FIG. 2B). The mixture was transfected in cells and puncta formation was visualized and the number of puncta were counted as particles per well. […] Next we aggregated 50 μM α-syn in the presence of 500 μM, 250 μM, 100 μM and 50 μM inhibitor corresponding to 10, 5, 2 and 1 fold excess. The mixture was then transfected in cells and aggregation was monitored over time for up to 3 days by fluorescence imaging (FIG. 2A).
(§2) HEK293T cells that stably express YFP labeled WT α-syn and A53T α-syn were a generous gift from Dr. Marc Diamond. Cells were grown in Dulbecco's modified Eagle's medium (Gibco) supplemented with 10% fetal bovine serum (HyClone), 1% penicillin/streptomycin (Gibco), and 1% glutamax (Gibco) in a humidified incubator in 37° C., 5% CO2.
(§3) 10,000 cells in 90 μL media were plated in 96 well black wall plate (Cat #3660) and allowed to adhere overnight. α-syn was transfected at a final monomer concentration of 125 nM. Lipofectamine 2000 was diluted in OptiMEM media (2.5+17.5 μL) and incubated at room temperature for 5 mins. Protein aggregates were diluted in OptiMEM media (1:20) and sonicated in a water bath sonicator for 3 mins at low pulse. Diluted lipofectamine and protein samples were then mixed 1:1 and incubated at room temperature for 20 mins and thereafter 10 μL was added to each well. All samples are added in triplicates and experiments were repeated a minimum of two times. For co-transfection of α-syn fibrils with inhibitors, the fibrils and inhibitors were diluted in OptiMEM and incubated for 3 hours followed by sonication.
(§4) Puncta formation and cell growth was measured using Celigo Imaging Cell Cytometer allowing for unbiased measurement. Wells were imaged using fluorescent GFP channel and confluence was measured using Celigo analysis software. Images of entire well were taken and particles counted by ImageJ by particle analysis. Same settings were used to analyze wells of one plate at all days. Total particles counted in each well were normalized against the confluence and reported as particles per well.

[2] = tested on: HEK293T cells expressing YFP-labeled WT α-syn; test: as above; type: cell-based, human; details: for seeding competence of α-syn aggregated in presence of peptide (particles/puncta per well): 50 μM α-syn aggregated with 10, 5, 2, 1 fold excess (S71: equimolar and sub-stoichiometric), monitored up to 3 days
Text: as §1, §2, §3, §4

[3] = tested on: HEK293T cells expressing YFP-labeled A53T α-syn; test: Cell culture seeding assay: recombinant α-syn fibrils co-transfected with inhibitors; type: cell-based, human; details: for seeding capacity of α-syn fibrils co-transfected with peptide (particles per well normalized to buffer): 125 nM recombinant α-syn fibrils; for concentrations at which seeding was reduced: 125 nM α-syn fibrils co-transfected
Method: (§5) We tested the efficacy of the inhibitors to prevent seeding in the cell culture model (FIG. 3A). We transfected the α-syn fibrils along with the different inhibitors. […] S62 was effective at concentrations of 12.5 μM and 6.25 μM in both cell lines (FIG. 3E). S71 was effective at low concentrations of 1.25 μM.
as §2, §3, §4

[4] = tested on: HEK293T cells expressing YFP-labeled WT α-syn; test: as above; type: cell-based, human; details: for seeding capacity of α-syn fibrils co-transfected with peptide (particles per well normalized to buffer): 125 nM recombinant α-syn fibrils; for concentrations at which seeding was reduced: 125 nM α-syn fibrils co-transfected
Method: as §5, §2, §3, §4

[5] = target: T1, α-syn seeded by PD tissue-extracted filaments (Homo sapiens, UniProt P37840); test: ThT assay of α-syn aggregation seeded by PD brain tissue-extracted filaments; type: biochemical; details: filaments from 4 different subjects (seeds A-D)
T1 construct: Full length α-syn was purified according to published protocols; made in house; host or cells: E. coli BL21 (DE3) gold
Text: We extracted insoluble protein aggregates from frozen autopsy PD brain tissues. We obtained tissues from 4 different subjects including the substantia nigra and frontal regions of one subject and temporal and frontal regions of other subjects. Using previously described protocols (Goedert et al. (1992) Neuron 8(1):159-168) that included precipitation with the ionic detergent sarkosyl, we extracted insoluble protein aggregates (FIG. 4A). All samples robustly seeded α-syn aggregation in vitro and in our cell culture model. In vitro addition of 2% seeds increased the ThT fluorescence 4 to 10 fold (FIG. 4B, 4C, 4D) along with a small decrease in the lag time. The seeded samples were then transfected in HEK cells. Consistent with the ThT assay, all seeded samples induced rapid puncta formation (FIG. 4E, 4F, 4G). Thus, fibrils extracted from PD brain tissues seeds recombinant protein, and the aggregates formed upon seeding induce rapid puncta formation in cell culture.
(§6) We tested the effect of the different inhibitors in preventing α-syn aggregation in the presence of PD extracted seeds. […] Next we tested the seeding potency of the α-syn aggregates formed in the presence of PD seeds and the different inhibitors (FIG. 6A).
Fibril formation assays were performed with 50 μM protein concentration in conditions identical to those used for aggregating proteins for seeding assay, but with the addition of ThT. All assays were carried out in black Nunc 96-well optical bottom plates (Thermo Scientific). Plates were agitated at 600 rpm in 3-mm rotation diameter in a Varioskan microplate reader (Thermo) at 37° C. Fluorescence measurements were recorded every 30 mins using λex=444 nm, λcm=482 nm, with an integration time of 200 μs.
Human frozen brain tissues were obtained from UCLA Brain Tumor Translational Resource (BTTR). Sarkosyl insoluble protein was extracted using previously described protocols. Briefly, frozen tissue was homogenized in ice cold PBS using a dounce homogenizer at 200 mg/mL. […]

[6] = tested on: WT α-syn expressing HEK cells; test: Seeding potency in cells of α-syn aggregates formed in the presence of PD seeds and inhibitors; type: cell-based, human; details: three different PD brain extracted seeds
Text: as §6
(§7) Human frozen brain tissues were obtained from UCLA Brain Tumor Translational Resource (BTTR). Sarkosyl insoluble protein was extracted using previously described protocols. Briefly, frozen tissue was homogenized in ice cold PBS using a dounce homogenizer at 200 mg/mL. The homogenate was then diluted in buffer A (10 mM Tris 7.4, 800 mM NaCl, 1 mM EGTA, 10% Sucrose) to 50 mg/mL in total volume of 1 mL and centrifuged at 20,700 g for 20 min at 4° C. The supernatant was collected in an ultracentrifuge tube and pellet was resuspended in 0.5 mL buffer A followed by centrifugation at 20,700 g for 20 mins at 4° C. The supernatants pooled together. 150 μl 10% sarkosyl (w/v) in Millipore water was then added and incubated for 1 h at room temperature on flat rotating shaker at 700 rpm. The solution was then centrifuged at 100,000 g for 1 h at 4° C. using SW 55 Rotor (Beckman Coulter). The supernatanat was discarded and pellet was washed with 5 mL Buffer A and centrifuged at 100,000 g for 20 mins at 4° C. The pellet was resuspended in 100 μl 50 mM Tris Ph 7.4
as §3, §4

[7] = tested on: A53T α-syn expressing HEK cells; test: as above; type: cell-based, human; details: three different PD brain extracted seeds
Text: as §6, §7, §3, §4

WT YFP-α-syn HEK cells = test: PD filament seeded α-syn fibrils transfected along with inhibitors; type: cell-based, human; details: two different PD filaments; for seeding by PD filament seeded α-syn fibrils (puncta formation): fluorescence measured up to 6 days
Method: We tested the efficacy of the inhibitors in preventing seeding by PD fibrils in cell culture. α-syn aggregates formed in the presence of PD fibrils were transfected in WT HEK cells along with the different inhibitors (FIG. 7A).
as §7
10,000 cells in 90 μL media were plated in 96 well black wall plate (Cat #3660) and allowed to adhere overnight. α-syn was transfected at a final monomer concentration of 125 nM. Lipofectamine 2000 was diluted in OptiMEM media (2.5+17.5 μL) and incubated at room temperature for 5 mins. […]
as §4, with “Same settings were used to analyze wells of one plate at all days.” left out

[8] = α-syn aggregated in presence of inhibitor

Substance | toxicity compared with NACore (PC12 cells) | seeding competence of α-syn aggregated in presence of peptide (particles/puncta per well) [1] | seeding competence of α-syn aggregated in presence of peptide (particles/puncta per well) [2] | seeding capacity of α-syn fibrils co-transfected with peptide (particles per well normalized to buffer) [3] | concentrations at which seeding was reduced [3] | seeding capacity of α-syn fibrils co-transfected with peptide (particles per well normalized to buffer) [4] | concentrations at which seeding was reduced [4] | inhibition of α-syn aggregation seeded by PD extracted seeds (ThT fluorescence) [5] | seeding potency of α-syn aggregates formed in presence of PD seeds and inhibitor (puncta formation) [6] | seeding potency of α-syn aggregates formed in presence of PD seeds and inhibitor (puncta formation) [7] | duration of reduction in seeding [1, 8] | duration of reduction in seeding [2, 8] | duration of reduction of seeding ([4]; single administration, co-transfection) | seeding by PD filament seeded α-syn fibrils (puncta formation) (WT YFP-α-syn HEK cells) | concentrations at which seeding by PD filament seeded fibrils was prevented/reduced (WT YFP-α-syn HEK cells)
AVVTGVTAV [SubNACore, AVVTGVTAV] | not as toxic |  |  |  |  |  |  |  |  |  |  |  |  |  | 
GAVVWGVTAVKKGRKKRRQRRRPQ (TAT tag) [Inhibitor S62] |  | not seeding competent; also recorded: seeding incompetent | not seeding competent; also recorded: seeding incompetent | reduce seeding capacity; also recorded: effective | 12.5 µM and 6.25 µM | reduce seeding capacity; also recorded: effective | 12.5 µM and 6.25 µM | effective against all seeds that were tested; also recorded: efficacy against all seeds |  |  |  |  |  |  | 
GAVVWGVTAVKKKKK (C-terminal poly-lysine tag) [Inhibitor S37, W mutation at Thr72 and poly-lysine tag at the C-terminus] |  | not seeding competent; also recorded: significant reduction in seeding | not seeding competent; also recorded: significant reduction in seeding | reduce seeding capacity; also recorded: significant reduction in seeding | 12.5 µM and 6.25 µM | reduce seeding capacity; also recorded: significant reduction in seeding | 12.5 µM and 6.25 µM | marginal reduction in ThT fluorescence | not effective in reducing the seeding potency of aggregates | not effective in reducing the seeding potency of aggregates | up to 2 days | up to 2 days | up to 2 days | prevented seeding; also recorded: prevented puncta formation | 
YGRKKRRQRRRAVVT{N-me-Gly}VTAVAE [Inhibitor S71] |  | not seeding competent; also recorded: reduce the seeding potency of the aggregates | not seeding competent; also recorded: reduce the seeding potency of the aggregates | reduce seeding capacity; also recorded: effective | 1.25 µM | reduce seeding capacity; also recorded: effective | 1.25 µM | effective against seeds B and D; also recorded: efficacy against all seeds | effective against all three seeds; also recorded: did not induce puncta formation | effective against all three seeds; also recorded: did not induce puncta formation |  |  |  | reduced seeding; also recorded: prevented seeding | 6.25 µM
